Reference: article PMC8589421, “Impact of Type II LRRK2 inhibitors on signaling and mitophagy” (Biochemical Journal, 2021)
pIC50: −log10 of the molar value.

Experiments:
wild-type Flag-LRRK2 = target: T1, wild-type Flag-LRRK2 (Homo sapiens, UniProt Q5S007); assay: IC50 LRRK2 Nictide assay, wild type; assay type: biochemical
T1 construct: Human recombinant full length wild-type Flag-LRRK2 (#A15198); Flag (N); purchased ThermoFisher Scientific A15198
Protocol: (#A15201) purchased from ThermoFisher Scientific. […] After incubation for 30 min at room temperature, reactions were terminated by harvesting the whole reaction volume onto P81 phosphocellulose filter plate and immersion in 50 mM phosphoric acid. […] IC50 values were calculated with GraphPad Prism using non-linear regression analysis.

Flag-LRRK2[G2019S] = target: T2, Flag-LRRK2[G2019S] (Homo sapiens, UniProt Q5S007, G2019S); assay: IC50 LRRK2 Nictide assay, G2019S; assay type: biochemical; details: read-out: IC50 LRRK2 G2019S (100 µM ATP), Nictide peptide substrate, value ± SD
T2 construct: towards full length wild type and G2019S pathogenic LRRK2 mutant in a biochemical assay; Flag (N); purchased ThermoFisher Scientific A15201
T2 sequence (Q5S007 whole entry G2019S): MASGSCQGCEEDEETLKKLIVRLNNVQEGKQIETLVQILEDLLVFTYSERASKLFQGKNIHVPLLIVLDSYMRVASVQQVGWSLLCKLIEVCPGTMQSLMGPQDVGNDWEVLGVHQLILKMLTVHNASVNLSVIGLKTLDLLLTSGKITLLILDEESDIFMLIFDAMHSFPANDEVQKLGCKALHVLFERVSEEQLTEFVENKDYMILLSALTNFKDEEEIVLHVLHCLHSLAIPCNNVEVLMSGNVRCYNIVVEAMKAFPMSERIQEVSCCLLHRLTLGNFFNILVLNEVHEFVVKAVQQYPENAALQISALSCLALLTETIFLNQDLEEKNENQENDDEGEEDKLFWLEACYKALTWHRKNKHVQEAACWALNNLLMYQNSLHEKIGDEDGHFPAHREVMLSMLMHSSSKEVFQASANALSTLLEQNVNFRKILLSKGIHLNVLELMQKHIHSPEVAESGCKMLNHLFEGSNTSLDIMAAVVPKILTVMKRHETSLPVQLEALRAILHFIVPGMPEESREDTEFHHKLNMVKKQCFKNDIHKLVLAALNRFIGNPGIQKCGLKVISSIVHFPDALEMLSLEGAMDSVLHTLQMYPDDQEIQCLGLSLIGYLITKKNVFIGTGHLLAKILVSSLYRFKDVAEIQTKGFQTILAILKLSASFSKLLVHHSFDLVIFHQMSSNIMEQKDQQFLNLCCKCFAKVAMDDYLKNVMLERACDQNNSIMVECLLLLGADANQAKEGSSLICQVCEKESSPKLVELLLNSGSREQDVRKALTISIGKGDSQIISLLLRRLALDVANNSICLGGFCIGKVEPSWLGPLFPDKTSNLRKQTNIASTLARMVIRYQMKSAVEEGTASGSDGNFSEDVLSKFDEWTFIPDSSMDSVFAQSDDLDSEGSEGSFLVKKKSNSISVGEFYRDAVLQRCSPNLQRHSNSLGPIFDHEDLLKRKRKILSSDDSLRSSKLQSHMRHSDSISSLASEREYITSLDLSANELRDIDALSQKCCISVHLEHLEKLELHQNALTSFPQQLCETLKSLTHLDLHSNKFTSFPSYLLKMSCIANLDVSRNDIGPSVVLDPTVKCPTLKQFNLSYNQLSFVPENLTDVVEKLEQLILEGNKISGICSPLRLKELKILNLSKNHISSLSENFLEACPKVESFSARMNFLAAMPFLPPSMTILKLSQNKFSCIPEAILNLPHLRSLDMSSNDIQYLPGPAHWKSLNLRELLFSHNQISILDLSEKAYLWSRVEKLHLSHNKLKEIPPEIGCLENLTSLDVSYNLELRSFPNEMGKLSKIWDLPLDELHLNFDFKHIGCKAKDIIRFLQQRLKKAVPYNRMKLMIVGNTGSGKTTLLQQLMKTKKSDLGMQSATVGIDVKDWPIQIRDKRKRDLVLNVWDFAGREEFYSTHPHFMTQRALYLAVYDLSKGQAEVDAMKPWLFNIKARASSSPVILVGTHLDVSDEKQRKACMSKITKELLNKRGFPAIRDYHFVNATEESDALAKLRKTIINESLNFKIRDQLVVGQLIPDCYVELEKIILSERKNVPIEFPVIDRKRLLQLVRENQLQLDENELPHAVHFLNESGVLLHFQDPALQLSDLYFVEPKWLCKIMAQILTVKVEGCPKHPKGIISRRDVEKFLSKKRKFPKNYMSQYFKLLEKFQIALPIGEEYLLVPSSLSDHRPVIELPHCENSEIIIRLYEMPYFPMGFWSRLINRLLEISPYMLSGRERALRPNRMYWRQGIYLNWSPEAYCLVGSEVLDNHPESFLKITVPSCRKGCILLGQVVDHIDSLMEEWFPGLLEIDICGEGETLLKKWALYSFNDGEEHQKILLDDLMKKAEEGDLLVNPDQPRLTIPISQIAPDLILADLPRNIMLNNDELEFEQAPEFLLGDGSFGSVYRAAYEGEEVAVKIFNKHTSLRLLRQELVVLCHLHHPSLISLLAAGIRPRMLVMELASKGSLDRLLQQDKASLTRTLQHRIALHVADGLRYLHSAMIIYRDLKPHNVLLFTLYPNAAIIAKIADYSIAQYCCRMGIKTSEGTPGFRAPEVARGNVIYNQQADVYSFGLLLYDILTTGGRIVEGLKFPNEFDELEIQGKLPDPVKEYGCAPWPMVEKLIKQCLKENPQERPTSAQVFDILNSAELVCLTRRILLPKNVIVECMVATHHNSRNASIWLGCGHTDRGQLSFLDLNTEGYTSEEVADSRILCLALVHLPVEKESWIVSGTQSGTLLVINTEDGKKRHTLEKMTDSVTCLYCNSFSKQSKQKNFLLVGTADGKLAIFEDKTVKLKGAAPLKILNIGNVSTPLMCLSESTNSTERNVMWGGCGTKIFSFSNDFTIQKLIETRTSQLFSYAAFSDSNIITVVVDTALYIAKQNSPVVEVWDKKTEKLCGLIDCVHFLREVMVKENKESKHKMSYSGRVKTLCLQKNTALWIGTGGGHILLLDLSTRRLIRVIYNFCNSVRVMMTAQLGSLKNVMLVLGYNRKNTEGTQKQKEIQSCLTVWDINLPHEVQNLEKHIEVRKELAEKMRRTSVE

[1] = system: Dundee panel of 140 protein kinases; assay: Kinase profiling; assay type: biochemical
Description: […] Results for each kinase are presented as the mean kinase activity ±S.D. for an assay undertaken in duplicate relative to a control kinase assay in which the inhibitor was omitted. Abbreviations and assay conditions used for each kinase are available (http://www.kinase-screen.mrc.ac.uk/services/premier-screen).

LRRK2 14-3-3 binding = system: T3, LRRK2 14-3-3 binding; assay: Analysis of 14-3-3 binding in HEK293 cells overexpressing wild-type LRRK2; assay type: cell-based, human; details: 5 μM GZD-824 for 4 h, 1 μM GSK3357679A
T3 construct: host or cells: HEK293
Protocol: This was undertaken as described previously. Briefly, wild-type FLAG-LRRK2 was transiently expressed in HEK293 cells with HA-Rab29. Twenty-four hours post-transfection cells were lysed with lysis buffer and snap frozen. LRRK2 was immunoprecipitated from 4 mg of lysate using 20 μl anti-FLAG-M2 agarose beads (Sigma, #A2220) for 2 h in rotation at +4°C. Immunoprecipitates were washed once with lysis buffer supplemented with 0.5% (by vol) Nonidet P-40 (instead of Triton X-100) and 0.5 M NaCl followed by two washes. Samples were eluted in 2× LDS sample buffer (20 µl per 10 µl of resin) and heated at 70°C for 10 min. After centrifugation through 0.22 µm Spin X filter, the eluted protein was subjected to immunoblotting with the indicated antibodies. An amount of 10 μl of the final reaction mixture was needed for the detection of binding of endogenous 14-3-3 and 1 µl for detection of LRRK2.

[2] = system: LRRK2 Ser935 phosphorylation; assay: Ser935 phosphorylation in HEK293 cells overexpressing wild-type LRRK2; assay type: cell-based, human; details: 1 μM
Protocol: Cell extracts were mixed with a quarter of a volume of NuPage LDS Sample buffer 4× Invitrogen and heated at 95°C for 5 min. […] At the end of electrophoresis, proteins were electrophoretically transferred onto the nitrocellulose membrane (GE Healthcare, Amersham Protran Supported 0.45 µm NC) at 100 V for 90 min on ice in the transfer buffer (48 mM Tris–HCl and 39 mM glycine supplemented with 20% methanol). Transferred membrane was blocked with 5% (w/v) skim milk powder dissolved in TBS-T [20 mM Tris–HCl, pH 7.5, 150 mM NaCl and 0.1% (v/v) Tween 20] at room temperature for 1 h. The membrane was typically cropped into three pieces, namely the ‘top piece’ (from the top of the membrane to 75 kDa), the ‘middle piece’ (between 75 and 30 kDa) and the ‘bottom piece’ (from 30 kDa to the bottom of the membrane). All primary antibodies were used at 1 μg/ml final concentration and incubated in TBS-T containing 5% (by mass) bovine serum albumin with exception of α-tubulin and GAPDH antibodies that were diluted 1 : 5000 and 1 : 2000, respectively. The top piece was incubated with the indicated rabbit anti-LRRK2 phosphorylation site antibody multiplexed with mouse anti-LRRK2 C-terminus total antibody. […] Protein bands were acquired via near infrared fluorescent detection using the Odyssey CLx imaging system and quantified using the Image Studio software. […]

[3] = system: Rab29 mediated relocalization of LRRK2 to the Golgi apparatus; assay: Rab29 mediated recruitment of LRRK2 to the Golgi, immunofluorescence in HeLa cells; assay type: cell-based, human; details: 5 μM GZD-824 or 1 μM GSK3357679A for 4 h
Protocol: HeLa cells were seeded on coverslips and transfected with the plasmid reported in each image 24 h before fixation. Following the treatments with the inhibitors described in figure legends, cells were washed twice in DPBS and fixed with 3.7% Paraformaldehyde pH 7.3 (Agar scientific, #R1026), 200 mM HEPES, for 20 min. Cells were then washed twice with DMEM, 20 mM HEPES, and then incubated for 10 min with DMEM, 10 mM HEPES. After two washes in DPBS, fixed cells were permeabilized with 0.2% (by vol) NP-40 in DPBS for 10 min. Cells were blocked using 1% (by mass) BSA in DPBS, then incubated for 1 h with primary antibodies diluted in 1% (by mass) BSA in DPBS, washed three times in 0.2% (by mass) BSA in DPBS, and incubated for 1 h with secondary antibodies. The coverslips were washed three times with 0.2% (by mass) BSA in PBS. Coverslips were washed once more in double distilled water and mounted on slides (VWR, #631-0909) using ProLong™ Diamond Antifade Mountant (ThermoFisher, #P36961). For localization of the Golgi compartment, Golgin-97 was stained with rabbit anti-GM97 (CST, #D8P2K) and visualized with goat anti-rabbit conjugated to Alexa Fluor 405 (Life Technologies, #P10994). HA-Rab29 was stained with mouse anti-HA (Abcam, clone HA.C5 #ab18181) and visualized with goat anti-mouse conjugated to Alexa Fluor 594 (Life Technologies, #A-11032). […]

[4] = system: basal mitophagy, wild type MEFs; assay: mito-QC basal mitophagy in wild-type primary MEFs; assay type: cell-based, mouse; details: 24 h, 30–300 nM GZD-824, GSK3357679A 100 nM positive control
Protocol: (§1) To assess mitophagy, wild type, G2019S knock in, and LRRK2 knock out primary mouse embryonic fibroblasts (MEFs) were derived, from time-mated pregnant females at E12.5 as previously described. Briefly, cells were plated on glass coverslips and incubated with DMEM (Gibco, 11960-044) supplemented with 10% FBS, 2 mM L-Glutamine (Gibco, 2503-081), 1% non-essential amino acids (Gibco, 11140-035), 1% Antibiotics (Penicillin/Streptomycin 100 U/ml penicillin and 100 µg/ml streptomycin; Gibco), and 150 µM β-Mercaptoethanol (Gibco, 21985-023) at 37°C under a humidified 5% CO2 atmosphere. […] GSK3357679A 100 nM (Ding et al., in prep) was used as a positive control. At the end of the treatment, MEFs were briefly washed twice in DPBS (Gibco, 14190-094), and fixed in 3.7% Paraformaldehyde pH 7.00 (Sigma, P6148), 200 mM HEPES, for 20 min. Cells were then washed two times with DMEM, 10 mM HEPES, and then incubated for 10 min with DMEM, 10 mM HEPES. […] Images were acquired using a Nikon Eclipse Ti-S fluorescence microscope with a 63× objective. Images were analyzed using the mito-QC counter as previously described. Experiments were performed in 3–4 independent experiments and data was analyzed with a one-way ANOVA followed by a Dunnett's multiple comparison test using the GraphPad Prism software (version 8.4.3 (686)).

[5] = system: basal mitophagy, LRRK2[G2019S] MEFs; assay: mito-QC basal mitophagy in LRRK2[G2019S] knock-in primary MEFs; assay type: cell-based, mouse; details: 24 h, 30–300 nM GZD-824, GSK3357679A 100 nM positive control
Protocol: as §1

[6] = system: basal mitophagy, LRRK2 knock-out MEFs; assay: mito-QC basal mitophagy in LRRK2 knock-out primary MEFs; assay type: cell-based, mouse; details: 24 h
Protocol: as §1

T1 sequence (Q5S007 whole entry): as the sequence (Q5S007 whole entry G2019S) above, with S2019G counted along it

IC50 LRRK2 WT (100 µM ATP) (wild-type Flag-LRRK2; Nictide peptide substrate, value ± SD): sub-nanomolar potency
pIC50 (wild-type Flag-LRRK2; read-out: IC50 LRRK2 WT (100 µM ATP), Nictide peptide substrate, value ± SD): 9.52
pIC50 (Flag-LRRK2[G2019S]): 9.47
kinase selectivity (panel of 140 protein kinases) [1]: highly selective
Substance: GSK3357679A
impact on 14-3-3 binding to LRRK2 (LRRK2 14-3-3 binding): ablated
effect on Ser935 phosphorylation [2]: ablated
impact on Rab29 mediated recruitment of LRRK2 to the Golgi [3]: no impact
stimulation of basal mitophagy [4]: ~2 fold
stimulation of basal mitophagy [5]: ~2 fold
impact on basal mitophagy in LRRK2 knock-out cells [6]: neither GZD-824 or GSK3357679A impacted basal mitophagy
